Experimental findings from patent publication US4612366A, “Cyclic hexapeptide somatostatin analogs” (Merck & Co., Inc., priority 1985, dated 1986) are described below.

The test system of one assay is portal vein insulin. The assay is described as follows: Decrease of portal vein insulin levels in anesthetized rats, compared to somatostatin. The conditions noted are these: multiples or fractions of the effect of somatostatin (= 1); urethane-anesthetized male Sprague-Dawley rats, external jugular vein, portal vein blood after 5 minutes. Type of assay: in vivo, rat. How it is done:
(§1) Analogs of somatostatin were compared to somatostatin in their ability to decrease the levels of portal vein glucagon and insulin in anesthetized rats. Male Sprague-Dawley rats (Charles River CD) weighing 160-200 g were anestetized with urethane (150 mg/100 g of body weight; Aldrich). Saline or peptides were administered via the external jugular vein. After 5 minutes, the portal vein was exposed, and blood was collected via syringe containing 3 mg of EDTA and placed in chilled tubes containing 100 μl of Trasylol (FBA Pharmaceuticals) for subsequent hormone analysis. Plasma levels of glucagon were determined by the method of Faloona and Unger, Methods of Hormone Radioimmunossay, Jaffe and Behrman (Eds), Academic Press, New York, Vol. II, pp. 257-527 (1976), utilizing glucagon antisera 30K obtained from R. Unger (Dallas, TX). Plasma levels of insulin were determined by a modification of the procedure of Herbert et al., J. Clin. Endocrinol. Metab., 25, 1375-1384 (1965).
(§2) The test results for some of the compounds of this invention are recorded below with the results for somatostatin listed first and given the arbitrary value of 1. The results for the instant compounds are given as multiples or fractions of the effect of somatostatin. The first of the instant compounds listed is the compound prepared in Example 1-5. […]

A further assay relates to portal vein glucagon. The assay is described as follows: Decrease of portal vein glucagon levels in anesthetized rats, compared to somatostatin. The assay is classed as in vivo, rat. The conditions noted are these: multiples or fractions of the effect of somatostatin (= 1); urethane-anesthetized male Sprague-Dawley rats, external jugular vein, portal vein blood after 5 minutes. As to the method:
as §1, §2

Regarding `C[C@H](N)C(=O)NCC(=O)N[C@H]1CSSC[C@@H](C(=O)O)NC(=O)[C@H](CO)NC(=O)[C@H]([C@@H](C)O)NC(=O)[C@H](Cc2ccccc2)NC(=O)[C@H]([C@@H](C)O)NC(=O)[C@H](CCCCN)NC(=O)[C@H](Cc2c[nH]c3ccccc23)NC(=O)[C@H](Cc2ccccc2)NC(=O)[C@H](Cc2ccccc2)NC(=O)[C@H](CC(N)=O)NC(=O)[C@H](CCCCN)NC1=O` [Somatostatin], in the assay with portal vein insulin, the “Insulin Release Inhibition” value is 1. For the same compound, in the assay on portal vein glucagon, the “Glucagon Inhibition” value was determined as 1.
